# Experimental data from patent US12258339B2, “Macrocyclic complexes of alpha-emitting radionuclides and their use in targeted radiotherapy of cancer” (Cornell University, priority 2018, dated 2025).
# Experiment: Kinetic inertness of [^225Ac(macropa)]^+: challenge with 50-fold excess La^3+
# Assay type: physicochemical
# Conditions: 50-fold excess of La^3+, macropa 0.59 μM, RT, over 7 days
# Experimental: General. Stock solutions of La(NO3)3 (0.001 M or 0.1 M) were prepared in H2O. To the radiolabeled samples containing macropa (10 μL of 10^−5 M stock; 1.0×10^−10 moles) or DOTA (10 μL of 10^−3 M stock; 1.0×10^−8 moles) and ^225Ac (10 μL, 26 kBq) in NH4OAc buffer (pH 6, 0.15 M, 150 μL), a 50-fold mole excess of La^3+ was added (5 μL, of 0.001 M or 0.1 M stock were added to solutions containing macropa and DOTA, respectively). The solutions were kept at room temperature and analyzed by iTLC at several time points over the course of 8 days. The iTLC plates were developed using citric acid (0.05 M, pH 5) as the eluent. Under these conditions, [^225Ac(macropa)]^+ and [^225Ac(DOTA)]^− remained at the baseline (RF=0) and any unchelated ^225Ac (^225Ac-citrate) migrated with the solvent front (RF=1). Percent of complex remaining intact was calculated by integrating area under the peaks on the radiochromatogram and dividing the counts associated with the ^225Ac-complex (RF=0) by the total counts integrated along the length of the iTLC plate.
# The long half-life of ^225Ac necessitates its stable complex retention in vivo to avoid off-target damage to normal tissues arising from the release of free ^225Ac^3+. Furthermore, the stability of ^225Ac complexes against transmetalation and transchelation needs to be high. […]
compound,measurement,value
O=C([O-])c1cccc(CN2CCOCCOCCN(Cc3cccc(C(=O)[O-])n3)CCOCCOCC2)n1.[225Ac+3] [[^225Ac(macropa)]^+],^225Ac complex remained intact by radio-TLC,98%
